Laboratory results from patent US20240350660A1, “Compositions and Methods for Increasing Bioavailability Using Cyclodextrin Modification” (priority 2021, published 2024).

What was measured:
SARS-COV-2 [1] = test: SARS-COV-2 replication in Vero E6 cells in vitro (viral load by RT-PCR); format: cell-based; settings: Severe acute respiratory syndrome coronavirus 2, Vero C1008; FIG. 3; cells treated at 1 μM final concentration; complexes at 1:1 molar ratio; read-out: Inhibition of SARS-COV-2 replication over untreated
SARS-COV-2 [2] = test: Human ACE2 transgenic COVID-19 mouse model (body weight, survival); format: in vivo, hACE2 transgenic mice; settings: Daily
[3] = test system: mouse model of diabetes (streptozotocin-induced); test: Streptozotocin-induced diabetes mouse model, blood glucose 4 hours post treatment; format: in vivo, mice (C57BL/6)
Experimental: Eight week old male C57BL/6 strain of mice were used. The mice were fed on standard diet and water ad libitum. Diabetes was induced by intraperitoneal injection of 60 mg/kg of a freshly prepared streptozotocin (STZ) dissolved in 0.1 M cold citrate buffer at a pH of 4.5. Body weight, food, and fluid intake were monitored daily. Induction was continued for 7 consecutive days until chronic polydipsia and polyuria was established. Post-prandial blood glucose levels were measured by blood glucose strips, and mice with levels higher than 400 mg/dL were defined as chronically diabetic and chosen for experiments. Test animals were treated with product by oral gavage. For a given product, n=6 animals were treated. Blood samples for whole blood glucose were obtained from the tail tip 4 hours post treatment, and blood glucose levels were measured by Roche blood glucose strips. Means and standard error of the means were calculated. Differences in mean post-prandial blood glucose 4 hours post treatment of animals treated with product and untreated control […] diabetic animals (n=6) were calculated. Relative clinical effects of the products tested were determined by comparing the difference in blood glucose of treated relative to untreated controls.

[4] = 200 mg/kg, Pretreatment to Day 7
[5] = 25 mg/kg oral gavage, n=6, glucose levels given in mg/dL

C[C@@H]1O[C@@H](OC[C@H]2O[C@@H](Oc3c(-c4ccc(O)c(O)c4)oc4cc(O)cc(O)c4c3=O)[C@H](O)[C@@H](O)[C@@H]2O)[C@H](O)[C@H](O)[C@H]1O [rutin]
inhibition at 1 µM (SARS-COV-2 [1]): ~25%

CCC(CC)COC(=O)[C@H](C)N[P@](=O)(OC[C@H]1O[C@@](C#N)(c2ccc3c(N)ncnn23)[C@H](O)[C@@H]1O)Oc1ccccc1 [Remdesivir]
Survival (SARS-COV-2 [2]; 50 mg/kg, Day 1 post-treatment to 7): 100% | Survival (SARS-COV-2 [2]; [4]): 100%

Insulin
Difference in 4 h Blood Glucose vs. Untreated ([3]; 0.5 IU sc): 203.2 | Difference in 4 h Blood Glucose vs. Untreated ([3]; 1 IU sc): 236.2

CN(C)C(=N)N=C(N)N [Metformin]
Difference in 4 h Blood Glucose vs. Untreated ([3]; 200 mg/kg oral): 173.9 | Difference in 4 h Blood Glucose vs. Untreated ([3]; 250 mg/kg oral gavage, n=6): 181.7

OC[C@H]1O[C@@H]2O[C@H]3[C@H](O)[C@@H](O)[C@@H](O[C@H]4[C@H](O)[C@@H](O)[C@@H](O[C@H]5[C@H](O)[C@@H](O)[C@@H](O[C@H]6[C@H](O)[C@@H](O)[C@@H](O[C@H]7[C@H](O)[C@@H](O)[C@@H](O[C@H]8[C@H](O)[C@@H](O)[C@@H](O[C@H]1[C@H](O)[C@H]2O)O[C@@H]8CO)O[C@@H]7CO)O[C@@H]6CO)O[C@@H]5CO)O[C@@H]4CO)O[C@@H]3CO [Betacyclodextrin alone, beta-cyclodextrin]
Difference in 4 h Blood Glucose vs. Untreated [3, 5]: 35.46

COc1cc(/C=C/C(=O)CC(=O)/C=C/c2ccc(O)c(OC)c2)ccc1O [Unconjugated Curcumin, curcumin]
Difference in 4 h Blood Glucose vs. Untreated ([3]; 5 mg/kg oral gavage, n=6): 29.8 | Difference in 4 h Blood Glucose vs. Untreated [3, 5]: 60.22

O=c1c(O)c(-c2ccc(O)c(O)c2)oc2cc(O)cc(O)c12 [Quercitin]
Survival (SARS-COV-2 [2]; 66 mg/kg, Pretreatment to Day 7): 80% | Survival (SARS-COV-2 [2]; [4]): 100%

Cc1cnc(C(=O)NCCc2ccc(S(=O)(=O)NC(=O)NC3CCCCC3)cc2)cn1 [Glipizide]
Difference in 4 h Blood Glucose vs. Untreated ([3]; 5 mg/kg oral gavage, n=6): 198.0
